{
  "source": "paper PMC11984407",
  "about": "“A natural small molecule isoginkgetin alleviates hypercholesterolemia and atherosclerosis by targeting ACLY” (Theranostics, 2025)",
  "key": {"Srebf1c and Fasn mRNA": {"system": "Srebf1c and Fasn mRNA", "assay": "RT-qPCR of lipid synthesis genes after ACLY knockdown in AML12 and Huh7 cells", "format": "cell-based", "details": "5 µM, 50 µM PA, 12 h", "procedure": "Total RNA was extracted from cultured cells or animal tissue using RNeasy kits (RN001-50Rxns, YiShan, Shanghai, China). Subsequently, cDNA was generated using a Takara Reverse Transcription Kit (RR037B, Takara, Kyoto, Japan). Subsequently, quantitative real-time polymerase chain reaction (RT-qPCR) assays were conducted using ChamQ SYBR qPCR Master Mix (Q311-02, Vazyme, Nanjing, China), following the reverse transcription. The Roche LC96 real-time PCR detection system was employed for the detection of results, with glyceraldehyde-3-phosphate dehydrogenase (GAPDH) serving as the loading control for the quantification of mRNA levels. The fold change relative to the respective controls was determined using the 2^(^-ΔΔCt) method. Primers were designed using the PrimerQuest software and subsequently synthesised by Sangon Biotech (Shanghai, China)."}, "ACLY": {"biological_target": "T1, ACLY (Mus musculus, UniProt Q91V92)", "T1 sequence (Q91V92 1-1091)": "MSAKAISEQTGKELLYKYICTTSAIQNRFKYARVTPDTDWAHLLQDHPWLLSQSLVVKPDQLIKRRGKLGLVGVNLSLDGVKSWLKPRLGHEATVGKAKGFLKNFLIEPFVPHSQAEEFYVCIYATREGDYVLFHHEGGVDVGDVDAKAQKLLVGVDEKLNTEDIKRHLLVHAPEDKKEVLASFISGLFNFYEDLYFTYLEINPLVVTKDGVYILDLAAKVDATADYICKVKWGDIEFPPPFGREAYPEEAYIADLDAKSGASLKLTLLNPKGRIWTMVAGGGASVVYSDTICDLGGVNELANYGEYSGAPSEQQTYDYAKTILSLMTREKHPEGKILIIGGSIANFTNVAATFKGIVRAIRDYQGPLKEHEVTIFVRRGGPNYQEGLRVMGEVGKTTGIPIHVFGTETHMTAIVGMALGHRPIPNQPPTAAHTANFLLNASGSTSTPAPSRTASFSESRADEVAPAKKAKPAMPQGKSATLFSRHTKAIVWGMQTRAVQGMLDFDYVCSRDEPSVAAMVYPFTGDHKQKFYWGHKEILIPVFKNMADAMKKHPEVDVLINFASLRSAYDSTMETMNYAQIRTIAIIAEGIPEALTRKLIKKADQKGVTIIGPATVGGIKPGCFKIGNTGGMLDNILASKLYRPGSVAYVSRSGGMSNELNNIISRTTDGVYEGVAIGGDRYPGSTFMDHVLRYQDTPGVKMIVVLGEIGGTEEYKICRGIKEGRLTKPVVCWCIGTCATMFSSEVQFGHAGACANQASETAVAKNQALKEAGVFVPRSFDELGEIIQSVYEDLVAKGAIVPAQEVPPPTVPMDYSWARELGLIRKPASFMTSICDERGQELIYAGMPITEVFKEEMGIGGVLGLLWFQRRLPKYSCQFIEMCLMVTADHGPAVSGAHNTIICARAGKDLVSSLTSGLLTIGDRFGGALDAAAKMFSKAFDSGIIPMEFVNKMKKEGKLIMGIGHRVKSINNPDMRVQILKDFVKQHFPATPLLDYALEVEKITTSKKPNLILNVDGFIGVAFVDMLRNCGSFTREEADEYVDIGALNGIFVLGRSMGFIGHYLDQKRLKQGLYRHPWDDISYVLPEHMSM", "assay": "Cellular thermal shift assay in AML12 cell lysates", "format": "binding", "parameters": "The AML12 cell lysates were separated into two portions; endogenous in cells; host or cells: AML12", "details": "5 µM, 50 to 90 °C", "procedure": "The AML12 cell lysates were separated into two portions; one served as a control, while the other was exposed to 5 µM ISOGK for 1 h at room temperature. Subsequently, the lysates were individually heated at the specified temperatures (50 to 90 °C) for 5 min and allowed to cool at room temperature. Following this, the lysates underwent centrifugation at 12,000 rpm for 10 min at 4 °C, after which the supernatants were analyzed through Western blot."}},
  "data": [
    {"smiles": "COc1ccc(-c2cc(=O)c3c(O)cc(O)c(-c4cc(-c5cc(=O)c6c(O)cc(O)cc6o5)ccc4OC)c3o2)cc1", "note": "[ISOGK, Isoginkgetin]", "values": [
      {"measurement": "mRNA expression of Srebf1c and Fasn following ACLY knockdown", "setting": "Srebf1c and Fasn mRNA", "result": "did not demonstrate a further reduction"},
      {"measurement": "thermal stabilization of ACLY", "setting": "ACLY", "result": "stabilized the ACLY protein"}
    ]}
  ]
}
